Consider 16 compounds from ChEMBL document CHEMBL5528043, “Development of Potent Mcl-1 Inhibitors: Structural Investigations on Macrocycles Originating from a DNA-Encoded Chemical Library Screen” (J Med Chem, 2024).

Molecules are shown by their SMILES. In brackets after ≈: the same amount, converted by molar mass.

The test system of data set [1] is NCI-H929. The experiment in a line: Cytotoxicity against human NCI-H929 cells assessed as cell viability measured after 72 hrs incubation by CellTiterGlo assay. Type of data set: functional, cell-based. As to conditions: NCI-H929, 72 h. On the technique in general: In ATP-based viability assays light output follows the ATP content of the culture.
The nature of data set [2]: Kinetic solubility of the compound in pH 7.4 buffer measured after 24 hrs by LC-UV analysis. Format: physicochemical. To be noted: read-out: Kinetic_solubility.
In data set [3] the target is Induced myeloid leukemia cell differentiation protein Mcl-1 (Homo sapiens, UniProt Q07820). The experiment in a line: Inhibition of Mcl-1 (172-327) (unknown origin) using BIOTIN-AHXGQVGRQLAIIGDDINR-amide peptide by TR-FRET based BAK peptide displacement assay. In general terms: TR-FRET usually uses a lanthanide donor and a delayed reading to cut background.
Data set [4] has as its system NCI-H929. Description: Cytotoxicity against human NCI-H929 cells assessed as […] by measuring caspase 3/7 activity measured after 6 hrs by luminescence assay. To be noted: NCI-H929, 6 h. Type of data set: functional, cell-based.
For the next data set, the target named is Bcl-2-like protein 1 (Homo sapiens, UniProt Q07817). The experiment in a line: Inhibition of Bcl-xl (1-212) (unknown origin) using BIOTIN-AHXAHXGQVGRQLAIIGDDINR-amide peptide by TR-FRET based BAK peptide displacement assay.
A short description of data set [5]: Passive permeability of compound at pH 7.4 incubated for 4 hrs by PAMPA assay. Format: ADME. To be noted: read-out: permeability. Background: In PAMPA a lipid-coated filter parts donor from acceptor wells.
A short description of data set [6]: Metabolic stability in human liver S9 fraction assessed as half life. Type of data set: ADME, subcellular. To be noted: for half-life: liver S9 fraction.
A short description of data set [7]: Metabolic stability in human liver S9 fraction assessed as intrinsic clearance. As to conditions: for microsomal CLint: liver S9 fraction, read-out: CLH. Format: ADME, subcellular.
A short description of data set [8]: Metabolic stability in rat liver S9 fraction assessed as intrinsic clearance. Format: ADME, subcellular. As to conditions: read-out: CLH.
Data set [9] is described as follows: Metabolic stability in mouse liver S9 fraction assessed as half life. Format: ADME, subcellular.
Data set [10] in a line: Metabolic stability in rat liver S9 fraction assessed as half life. Type of data set: ADME, subcellular.
Data set [11] in a line: Metabolic stability in mouse liver S9 fraction assessed as intrinsic clearance. Type of data set: ADME, subcellular. To be noted: read-out: CLH.

Sequence of Bcl-2-like protein 1 (Q07817 whole entry): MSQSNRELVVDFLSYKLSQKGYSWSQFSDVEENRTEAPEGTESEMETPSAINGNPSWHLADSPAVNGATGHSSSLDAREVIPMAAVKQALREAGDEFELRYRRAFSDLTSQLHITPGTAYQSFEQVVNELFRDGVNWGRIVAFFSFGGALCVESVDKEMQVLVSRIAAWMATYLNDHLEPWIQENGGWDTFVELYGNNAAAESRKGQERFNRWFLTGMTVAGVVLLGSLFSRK
Sequence of Induced myeloid leukemia cell differentiation protein Mcl-1 (Q07820 whole entry): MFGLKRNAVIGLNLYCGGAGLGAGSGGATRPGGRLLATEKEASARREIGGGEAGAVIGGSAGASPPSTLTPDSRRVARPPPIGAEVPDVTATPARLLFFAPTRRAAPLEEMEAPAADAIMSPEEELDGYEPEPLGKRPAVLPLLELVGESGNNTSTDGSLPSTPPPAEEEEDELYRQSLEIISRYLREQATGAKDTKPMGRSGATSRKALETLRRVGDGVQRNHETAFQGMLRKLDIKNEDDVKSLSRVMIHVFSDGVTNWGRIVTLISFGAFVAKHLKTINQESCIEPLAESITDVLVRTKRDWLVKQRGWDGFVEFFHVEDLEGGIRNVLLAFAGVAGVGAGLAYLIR

Broadly, the IC50 is the midpoint of a concentration-inhibition curve. For the compound `CCOc1cc(Oc2cc(C)c(Cl)c(C)c2)cc2c1OCC(=O)N[C@H]1CC[C@H](CC1)CC(=O)N[C@@H](c1ccccc1)C(=O)N[C@H](Cc1ccccc1)C(=O)NCCc1ccc(cc1)OC2`, the IC50 was 41 nM with NCI-H929 [1], 1500 nM in data set [3], 60 nM in the data set on NCI-H929 [4] and over 10000 nM at Bcl-2-like protein 1. Also, in data set [2], the solubility kinetic at 24 h was under 2 µM.
As to `CCOc1cc(Oc2cc(C)c(Cl)c(C)c2)cc2c1OCC(=O)N[C@H]1CC[C@H](CC1)CC(=O)N[C@@H](CC(C)C)C(=O)N[C@H](Cc1cccnc1)C(=O)N[C@H](C(=O)O)Cc1ccc(cc1)OC2`, the solubility kinetic at 24 h in data set [2] is over 80 µM. Moreover, the IC50 is 31000 nM in [3] and 1100 nM in the data set with NCI-H929 [4]. For the same compound, the Papp at 4 h in [5] came to 5.3 ×10⁻⁶ cm/s.
As to `CCOc1cc(Oc2cc(C)cc(C)c2)cc2c1OCC(=O)N[C@H]1CC[C@H](CC1)CC(=O)N[C@@H](c1ccccc1)C(=O)N[C@H](Cc1ccccc1)C(=O)NCCc1ccc(cc1)OC2`, the 50% inhibitory concentration (IC50) with NCI-H929 [1] is 56 nM; in data set [3], 1600 nM; on Bcl-2-like protein 1, over 10000 nM.
A word on the half-life: it is the time in which the quantity being followed falls by half. Regarding `CCOc1cccc2c1OCC(=O)N[C@H]1CC[C@H](CC1)CC(=O)N[C@@H](c1ccccc1)C(=O)N[C@H](Cc1ccccc1)C(=O)N[C@H](C(=O)NC)Cc1ccc(cc1)NC2`, the t1/2 in data set [6] (s9) amounted to 17 min. Further, in data set [2], the solubility kinetic at 24 h is under 2 µM. In addition, the IC50 in [3] was 80 nM; at Bcl-2-like protein 1, over 10000 nM. In addition, the CLH in data set [7] (s9) is 17 µL/min/mg. The values for the microsomal CLint in data set [8] and in data set [11] were 18 µL/min/mg and 35 µL/min/mg, respectively. Further, the half-life came out at 20 min in [9] and 39 min in [10].
For the compound `CCOc1cccc2c1OCC(=O)N[C@H]1CC[C@H](CC1)CC(=O)N[C@@H](c1ccccc1)C(=O)N[C@H](Cc1ccccc1)C(=O)N[C@H](C(=O)NC)Cc1ccc(cc1)OC2`, the values for the half-life in data set [6], in data set [9] and in data set [10] were 37 min, 19 min and 47 min, respectively. Moreover, the solubility kinetic at 24 h in data set [2] was under 2 µM. Further, the values for the half-maximal inhibitory concentration (IC50) (in [3]; on Bcl-2-like protein 1) were 50 nM and over 10000 nM, respectively. Besides, the microsomal CLint in data set [7] came to 19 µL/min/mg; in [8] it was 15 µL/min/mg; in data set [11] it was 36 µL/min/mg.
As for `CCOc1cc(Oc2cc(C)c(Cl)c(C)c2)cc2c1OCC(=O)N[C@H]1CC[C@H](CC1)CC(=O)N[C@@H](c1ccccc1)C(=O)N[C@H](Cc1cccnc1)C(=O)N[C@H](C(=O)O)Cc1ccc(cc1)OC2`, the solubility kinetic at 24 h in data set [2] is over 80 µM. Besides, the concentration for half-maximal inhibition (IC50) in data set [3] is 13000 nM; with NCI-H929 [4], 480 nM. For the same compound, the Papp at 4 h in data set [5] amounted to 3.9 ×10⁻⁶ cm/s.
For `CCOc1cc(Oc2cc(C)c(Cl)c(C)c2)cc2c1OCC(=O)N[C@H]1CC[C@H](CC1)CC(=O)N[C@@H](c1ccccc1)C(=O)N[C@H](Cc1ccccc1)C(=O)NCCc1ccc(cc1)NC2`, the solubility kinetic at 24 h in [2] is under 2 µM. Further, the IC50 worked out at 5300 nM in [3] and 57 nM with NCI-H929 [4].
As to `CCOc1cc(Oc2cc(C)cc(C)c2)cc2c1OCC(=O)N[C@H]1CC[C@H](CC1)CC(=O)N[C@@H](c1ccccc1)C(=O)N[C@H](Cc1ccccc1)C(=O)N[C@H](C(=O)O)Cc1ccc(cc1)NC2`, in data set [2], the solubility kinetic at 24 h was over 80 µM. In addition, the values for the IC50 (in data set [3]; in the data set on NCI-H929 [4]) were 7700 nM and 630 nM, respectively. In data set [5], the Papp at 4 h is 2 ×10⁻⁶ cm/s.
As to `CCOc1cc(Oc2cc(C)cc(C)c2)cc2c1OCC(=O)N[C@H]1CC[C@H](CC1)CC(=O)N[C@@H](c1ccccc1)C(=O)N[C@H](Cc1ccccc1)C(=O)NCCc1ccc(cc1)NC2`, the solubility kinetic at 24 h in data set [2] is under 2 µM. Moreover, the figures for the IC50 (in data set [3]; in the data set with NCI-H929 [4]) were 9100 nM and 94 nM, respectively.
For `CCOc1cc(Oc2cc(C)c(Cl)c(C)c2)cc2c1OCC(=O)N[C@H]1CC[C@H](CC1)CC(=O)N[C@@H](c1ccccc1)C(=O)N[C@H](Cc1cccnc1)C(=O)NCCc1ccc(cc1)OC2`, in [2], the solubility kinetic at 24 h was under 2 µM. The values for the IC50 (in data set [3]; in the data set on NCI-H929 [4]) were 14000 nM and 45 nM, respectively. Also, the Papp at 4 h in data set [5] amounted to 5.5 ×10⁻⁶ cm/s.
`CCOc1cc(Oc2cc(C)c(Cl)c(C)c2)cc2c1OCC(=O)N[C@H]1CC[C@H](CC1)CC(=O)N[C@@H](CCS(C)(=O)=O)C(=O)N[C@H](Cc1ccncc1)C(=O)NCCc1ccc(cc1)OC2`: the solubility kinetic at 24 h in data set [2] is under 2 µM. The 50% inhibitory concentration (IC50) in data set [3] is 5300 nM; in the data set on NCI-H929 [4] it was over 10000 nM.
As to `CCOc1cccc2c1OCC(=O)N[C@H]1CC[C@H](CC1)CC(=O)N[C@@H](c1ccccc1)C(=O)N[C@H](Cc1ccccc1)C(=O)NCCc1ccc(cc1)OC2`, the IC50 with NCI-H929 [1] was over 10000 nM; in data set [3] it was 130 nM; on Bcl-2-like protein 1, over 10000 nM. Moreover, the half-life in [6] was found to be 8 min; in [9], 17 min; in [10] it was 23 min. In data set [2], the solubility kinetic at 24 h is under 2 µM. Besides, the values for the microsomal CLint in data set [7], in data set [8] and in data set [11] were 82 µL/min/mg, 30 µL/min/mg and 41 µL/min/mg, respectively.
In the case of `CCOc1cc(Oc2cc(C)c(Cl)c(C)c2)cc2c1OCC(=O)N[C@H]1CC[C@H](CC1)CC(=O)N[C@@H](CC(C)C)C(=O)N[C@H](Cc1cccnc1)C(=O)N[C@@H](C(=O)O)Cc1ccc(cc1)OC2`, the solubility kinetic at 24 h in [2] is 11 µM (≈ 10.2 µg/mL). Further, the half-maximal inhibitory concentration (IC50) in data set [3] came out at 16000 nM; with NCI-H929 [4] it was 410 nM. Moreover, the Papp at 4 h in data set [5] turned out to be 1.5 ×10⁻⁶ cm/s.
Take `CCOc1cc(Oc2cc(C)c(Cl)c(C)c2)cc2c1OCC(=O)N[C@H]1CC[C@H](CC1)CC(=O)N[C@@H](c1ccccc1)C(=O)N[C@H](Cc1ccccc1)C(=O)N[C@H](C(=O)O)Cc1ccc(cc1)NC2`: in [2], the solubility kinetic at 24 h was over 80 µM. The values for the IC50 (in data set [3]; in the data set with NCI-H929 [4]) were 5700 nM and 1100 nM, respectively. Besides, the Papp at 4 h in data set [5] is under 1 ×10⁻⁶ cm/s.
As for `CCOc1cc(Oc2cc(C)c(Cl)c(C)c2)cc2c1OCC(=O)N[C@H]1CC[C@H](CC1)CC(=O)N[C@@H](c1ccccc1)C(=O)N[C@H](Cc1ccncc1)C(=O)NCCc1ccc(cc1)OC2`, in [2], the solubility kinetic at 24 h was under 2 µM. The IC50 in data set [3] was 5300 nM; in the data set on NCI-H929 [4], 35 nM. For the same compound, in data set [5], the Papp at 4 h was under 1 ×10⁻⁶ cm/s.
On to `CCOc1cc(Oc2cc(C)c(Cl)c(C)c2)cc2c1OCC(=O)N[C@H]1CC[C@H](CC1)CC(=O)N[C@@H](c1ccccc1)C(=O)N1CCC[C@@H]1C(=O)NCCc1ccc(cc1)OC2`, for which the solubility kinetic at 24 h in data set [2] was under 2 µM. Besides, the IC50 is 18000 nM in data set [3] and 540 nM in the data set on NCI-H929 [4]. The Papp at 4 h in data set [5] stood at 7.3 ×10⁻⁶ cm/s.
